BindingDB's records for doi:10.1021/jm00011a005 (University of Minnesota, 1995)

Molecular target: Aldehyde dehydrogenase (Saccharomyces cerevisiae)
Test: In vitro inhibition against yeast Aldehyde dehydrogenase

| Structure (SMILES) | IC50 |
| --- | --- |
| O=C1c2ccccc2S(=O)(=O)N1O [2-Hydroxy-1,1-dioxo-1,2-dihydro-1lambda*6*-benzo[d]isothiazol-3-one] | > 1000 µM |
| CC(=O)ON1C(=O)c2ccccc2S1(=O)=O [Acetic acid 1,1,3-trioxo-1,3-dihydro-1lambda*6*-benzo[d]isothiazol-2-yl ester] | 240 µM |
